In the supplement of paper PMC10307832:

Columns and labels:
Experiment in all cases: relative viability (nuclei count vs DMSO), 5 days (fraction); higher = more cells survive
[1] = tested on: HCC-827
Method in brief: (§1)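 After 5 days of treatment, lung cancer cells in 1536-well plates were fixed and stained in a single step (final 0.05% Triton X-100, 1% formaldehyde, 1 ug/ml Hoechst) and their nuclei counted on 4× images. Treatment had been applied by pin tool the day after seeding as one drug alone or as a fixed anchor-drug dose with five library-drug doses (not always all listed) in √10 steps. Relative viability is the nuclei count of treated wells divided by that of vehicle wells, and values are medians of duplicate plates.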

[2] = tested on: HCC-366
Method in brief: as §1

[3] = tested on: LK-2
Method in brief: as §1

[4] = tested on: EKVX
Method in brief: as §1

[5] = tested on: LU99A
Method in brief: as §1

[6] = tested on: NCI-H1650
Method in brief: as §1

[7] = tested on: NCI-H1755
Method in brief: as §1

[8] = tested on: NCI-H1734
Method in brief: as §1

[9] = tested on: NCI-H1648
Method in brief: as §1

[10] = tested on: LC-2-ad
Method in brief: as §1

[11] = tested on: RERF-LC-KJ
Method in brief: as §1

[12] = tested on: NCI-H661
Method in brief: as §1

[13] = tested on: 201T
Method in brief: as §1

[14] = tested on: HCC-15
Method in brief: as §1

[15] = tested on: NCI-H2347
Method in brief: as §1

[16] = tested on: HCC-78
Method in brief: as §1

[17] = tested on: NCI-H441
Method in brief: as §1

[18] = tested on: COR-L 105
Method in brief: as §1

[19] = tested on: COR-L23
Method in brief: as §1

[20] = tested on: NCI-H1944
Method in brief: as §1

[21] = tested on: NCI-H1915
Method in brief: as §1

[22] = tested on: BEN
Method in brief: as §1

[23] = tested on: PC-3 [JPC-3]
Method in brief: as §1

[24] = tested on: SW 900
Method in brief: as §1

## Oc1nc(-c2ccc(C(F)(F)F)cc2)nc2c1CSCC2 [XAV939] + Nc1nc2[nH]cc(CCc3ccc(C(=O)N[C@@H](CCC(=O)O)C(=O)O)cc3)c2c(=O)[nH]1 [Pemetrexed] (partner 0.2 µM)
[1]; first compound 0.08 µM
  relative viability: 0.275
[1]; first compound 0.253 µM
  relative viability: 0.268
[1]; first compound 0.8 µM
  relative viability: 0.254
[1]; first compound 2.53 µM
  relative viability: 0.245
[2]; first compound 0.08 µM
  relative viability: 0.179
[2]; first compound 0.253 µM
  relative viability: 0.131
[2]; first compound 0.8 µM
  relative viability: 0.142
[2]; first compound 2.53 µM
  relative viability: 0.117
[3]; first compound 0.08 µM
  relative viability: 0.291
[3]; first compound 0.253 µM
  relative viability: 0.281
[3]; first compound 0.8 µM
  relative viability: 0.236
[3]; first compound 2.53 µM
  relative viability: 0.229
[4]; first compound 0.08 µM
  relative viability: 0.443
[4]; first compound 0.253 µM
  relative viability: 0.326
[4]; first compound 0.8 µM
  relative viability: 0.266
[4]; first compound 2.53 µM
  relative viability: 0.303
[5]; first compound 0.08 µM
  relative viability: 0.19
[5]; first compound 0.253 µM
  relative viability: 0.167
[5]; first compound 0.8 µM
  relative viability: 0.184
[5]; first compound 2.53 µM
  relative viability: 0.181
[6]; first compound 0.08 µM
  relative viability: 0.368
[6]; first compound 0.253 µM
  relative viability: 0.301
[6]; first compound 0.8 µM
  relative viability: 0.356
[6]; first compound 2.53 µM
  relative viability: 0.365
[7]; first compound 0.08 µM
  relative viability: 0.382
[7]; first compound 0.253 µM
  relative viability: 0.425
[7]; first compound 0.8 µM
  relative viability: 0.489
[7]; first compound 2.53 µM
  relative viability: 0.336
[8]; first compound 0.08 µM
  relative viability: 0.444
[8]; first compound 0.253 µM
  relative viability: 0.405
[8]; first compound 0.8 µM
  relative viability: 0.417
[8]; first compound 2.53 µM
  relative viability: 0.392
[9]; first compound 0.253 µM
  relative viability: 0.701
[9]; first compound 0.8 µM
  relative viability: 0.667
[9]; first compound 2.53 µM
  relative viability: 0.722
[10]; first compound 0.08 µM
  relative viability: 0.281
[10]; first compound 0.253 µM
  relative viability: 0.265
[10]; first compound 0.8 µM
  relative viability: 0.264
[10]; first compound 2.53 µM
  relative viability: 0.266
[11]; first compound 0.08 µM
  relative viability: 0.493
[11]; first compound 0.253 µM
  relative viability: 0.464
[11]; first compound 0.8 µM
  relative viability: 0.502
[11]; first compound 2.53 µM
  relative viability: 0.453
[12]; first compound 0.08 µM
  relative viability: 0.947
[12]; first compound 0.253 µM
  relative viability: 0.868
[12]; first compound 0.8 µM
  relative viability: 0.914
[12]; first compound 2.53 µM
  relative viability: 0.854
[13]; first compound 0.08 µM
  relative viability: 0.359
[13]; first compound 0.253 µM
  relative viability: 0.338
[13]; first compound 0.8 µM
  relative viability: 0.374
[13]; first compound 2.53 µM
  relative viability: 0.288
[14]; first compound 0.08 µM
  relative viability: 0.238
[14]; first compound 0.253 µM
  relative viability: 0.214
[14]; first compound 0.8 µM
  relative viability: 0.241
[14]; first compound 2.53 µM
  relative viability: 0.201
[15]; first compound 0.08 µM
  relative viability: 0.456
[15]; first compound 0.253 µM
  relative viability: 0.41
[15]; first compound 0.8 µM
  relative viability: 0.435
[15]; first compound 2.53 µM
  relative viability: 0.42
[16]; first compound 0.08 µM
  relative viability: 0.881
[16]; first compound 0.253 µM
  relative viability: 0.829
[16]; first compound 0.8 µM
  relative viability: 0.846
[16]; first compound 2.53 µM
  relative viability: 0.942
[17]; first compound 0.08 µM
  relative viability: 0.243
[17]; first compound 0.253 µM
  relative viability: 0.242
[17]; first compound 0.8 µM
  relative viability: 0.261
[17]; first compound 2.53 µM
  relative viability: 0.231
[18]; first compound 0.08 µM
  relative viability: 1.09
[18]; first compound 0.253 µM
  relative viability: 0.916
[18]; first compound 0.8 µM
  relative viability: 1.03
[18]; first compound 2.53 µM
  relative viability: 0.875
[19]; first compound 0.08 µM
  relative viability: 0.205
[19]; first compound 0.253 µM
  relative viability: 0.186
[19]; first compound 0.8 µM
  relative viability: 0.203
[19]; first compound 2.53 µM
  relative viability: 0.206
[20]; first compound 0.08 µM
  relative viability: 0.714
[20]; first compound 0.253 µM
  relative viability: 0.623
[20]; first compound 0.8 µM
  relative viability: 0.584
[20]; first compound 2.53 µM
  relative viability: 0.501
[21]; first compound 0.08 µM
  relative viability: 0.454
[21]; first compound 0.253 µM
  relative viability: 0.466
[21]; first compound 0.8 µM
  relative viability: 0.531
[21]; first compound 2.53 µM
  relative viability: 0.486
[22]; first compound 0.08 µM
  relative viability: 0.651
[22]; first compound 0.253 µM
  relative viability: 0.727
[22]; first compound 0.8 µM
  relative viability: 0.817
[22]; first compound 2.53 µM
  relative viability: 0.731
[23]; first compound 0.253 µM
  relative viability: 1.04
[23]; first compound 0.8 µM
  relative viability: 0.946
[23]; first compound 2.53 µM
  relative viability: 1.11
[24]; first compound 0.253 µM
  relative viability: 0.45
[24]; first compound 0.8 µM
  relative viability: 0.483
[24]; first compound 2.53 µM
  relative viability: 0.42
